Measurements: patent US6054441A, “Oxypurine nucleosides and their congeners, and acyl derivatives thereof, for improvement of hematopoiesis” (priority 1995, dated 2000)
Read-outs that look alike come from different tables or passages of the source.

Key:
mouse bone marrow cells = conditions: cited from earlier work
[1] = tested on: hematopoietic recovery after cyclophosphamide; experiment: Hematopoietic recovery after cyclophosphamide (Example 64); assay type: in vivo, Balb/C mice; conditions: day 7
Description: Fourteen female Balb/C mice weighing approximately 20 grams each received a 0.4 ml i.p. injection of either N-isobutyryldeoxyguanosine (50 mg/kg/treatment) in a Tween vehicle (0.2% Tween-80 in saline) or vehicle alone one time daily for five days following a single injection of cyclophosphamide (CP) (250 mg/kg, i.p.). On day 7 following CP administration all fourteen animals were bled and then sacrificed by cervical dislocation. Spleens were removed and weighed, and complete blood cell counts performed.

[2] = tested on: blood cell counts after 5-FU; experiment: Pretreatment, recovery after 5-fluorouracil (Example 60); assay type: in vivo, Balb/C mice; conditions: 7 days after 5-FU
Description: (§1) Twelve female Balb/C mice weighing approximately 20 grams each received a 0.4 ml i.p. injection of either N-palmitoylguanine (25 mg/kg/treatment) in a Tween-DMSO vehicle (0.2% Tween-80 and 7.5% DMSO in saline) or vehicle alone one time daily for three days. On the fourth day 5-fluorouracil (5-FU; 150 mg/kg, i.p.) was administered to all twelve animals. On day 7 following 5-FU administration all twelve of these animals were bled and then sacrificed by cervical dislocation. Six untreated mice were also bled and sacrificed to provide data on normal (basal) values. Spleens were removed and weighed, and complete blood cell counts performed.

[3] = tested on: blood cell counts after cyclophosphamide; experiment: Recovery after cyclophosphamide (Example 61); assay type: in vivo, Balb/C mice; conditions: 7 days after CP
Description: as §1, with “five days following a single injection of cyclophosphamide (CP) (250” for “three days. On the fourth day 5-fluorouracil (5-FU; 150”, “i.p.).” for “i.p.) was administered to all twelve animals.”, “CP” for “5-FU”

[4] = tested on: Interleukin-3 dependent bone marrow cells; conditions: 10 micrograms per milliliter
Description: (§2) Bone marrow cells were obtained by flushing the femurs of three male B6D2F1 mice. The cells were plated at 5.0×10^5 /ml in MEM plus 10% fetal calf serum and 25 Units/ml of recombinant IL-3 for 24-48 hours. Non-adherent cells were then separated from adherent cells and maintained for an additional twelve days. IL-3 was washed from cells, and cells were plated in MEM plus 10% fetal calf serum in the presence or absence of IL-3 and with or without the addition of palmitoyldeoxyguanosine (10 micrograms per milliliter) or deoxyguanosine (10 micrograms per milliliter). Cells were counted using the trypan blue exclusion method, and the percent of dead cells (trypan blue positive) was determined at 24, 40, 60 and 84 hours following the wash.

[5] = tested on: Interleukin-3 dependent bone marrow cells; experiment: cells; conditions: Mus musculus, Bone marrow cell, read-out: % Dead Cells
Description: as §2

[6] = tested on: human myeloid leukemia cell line (HL-60); conditions: cited from earlier work
[7] = tested on: hematopoietic recovery after cyclophosphamide; experiment: Hematopoietic recovery after cyclophosphamide (Example 37); assay type: in vivo, Balb/C mice; conditions: 5 μmoles/mouse/day i.p. 6 days; day 7; vs saline
Description: Twenty-four hours later and each day thereafter for a total of 6 days, mice were given a 0.4 ml i.p. injection of either physiological saline (controls), guanine (5 μmoles/mouse/day), or guanosine (5 μmoles/mouse/day). On day 7 all 10 mice in each of the three groups were bled, and then sacrificed by cervical dislocation. Spleens were removed and weighed, and complete blood cell counts performed.

[8] = tested on: hematopoietic recovery after cyclophosphamide; experiment: Hematopoietic recovery after cyclophosphamide, acyl chain length (Example 38); assay type: in vivo, Balb/C mice; conditions: day 7; guanosine 5, acyl derivatives 2.5 μmoles/mouse/day i.p.
Description: Cyclophosphamide (CP) (275 mg/kg, i.p.) was administered to 70 Balb/C female mice weighing approximately 20 grams each. Twenty-four hours later and each day thereafter for a total of 6 days, mice were given a 0.4 ml i.p injection of either physiological saline (controls), Tween 80 (0.2%), guanosine (5 μmoles/mouse/day in 0.2% Tween 80), or 2.5 μmoles per mouse per day of one of the following acylated derivatives of guanosine in 0.2% Tween 80: triacetylguanosine, octanoylguanosine, lauroylguanosine, or palmitoylguanosine. On day 7 following CP administration all 10 animals from each of the 7 groups were bled, and then sacrificed by cervical dislocation. Spleens were removed and weighed, and complete blood counts performed.

[9] = in presence of post-endotoxin serum

## Nc1nc2c(ncn2[C@@H]2O[C@H](COP(=O)(O)O)[C@@H](O)[C@H]2O)c(=O)[nH]1 [5'-guanosine monophosphate]
Mouse bone marrow cells; [9]
  number of colonies formed: inactive

## CC(C)C(=O)Nc1nc2c(ncn2[C@H]2C[C@H](O)[C@@H](CO)O2)c(=O)[nH]1 [N-isobutyryldeoxyguanosine]
[1]; 50 mg/kg/treatment, control 72.7±2.7, p<.001, in mg (unit assumed)
  spleen weight: 116.3±8.0
[1]; control 1.2±0.2, p<.02
  lymphocyte counts: 2.1±0.2
[1]; control 3.3±0.4, p<.001
  total neutrophil counts: 6.6±0.5
[1]; control 4.6±0.5, p<.001
  white blood cell counts: 8.9±0.5

## CCCCCCCCCCCCCCCC(=O)Nc1nc2nc[nH]c2c(=O)[nH]1 [NPG, N^2 -Palmitoylguanine]
[2]; 25 mg/kg/treatment
  Lymphocytes: 4.5 ± .5 K/μl
  Platelets: 787 ± 72 K/μl
  WBC: 4.6 ± .5 K/μl
[2]; 25 mg/kg/treatment i.p., 3 days before
  Spleen: 79 ± 3 mg
[3]; 25 mg/kg/treatment
  Neutrophils: 5.5 ± .5 K/μl
  Platelets: 774 ± 734 K/μl
  WBC: 7.3 ± .6 K/μl
[3]; 25 mg/kg/treatment i.p., 5 days
  Spleen: 145 ± 13 mg

## Nc1nc2c(ncn2[C@@H]2O[C@@H]3COP(=O)(O)O[C@H]3[C@H]2O)c(=O)[nH]1 [cGMP, 3',5'-cyclic guanosine monophosphate]
Mouse bone marrow cells; in absence of post-endotoxin serum
  number of colonies formed: no effect
Mouse bone marrow cells; [9]
  number of colonies formed: increase in the number of colonies formed

## Nc1nc2c(ncn2[C@H]2C[C@H](O)[C@@H](CO)O2)c(=O)[nH]1 [dG, deoxyguanosine]
[4]
  prevention of apoptotic cell death due to IL-3 deprivation: did nothing to prevent apoptotic cell death due to IL-3 deprivation
[5]; 24 h
  cytotoxicity at 10 µg/mL: 15.5 ± 0.5%
[5]; 40 h
  cytotoxicity at 10 µg/mL: 21.5 ± 3.5%
[5]; 60 h
  cytotoxicity at 10 µg/mL: 46.3 ± 10.3%
[5]; 84 h
  cytotoxicity at 10 µg/mL: 68.3 ± 6%

## Nc1nc2nc[nH]c2c(=O)[nH]1 [guanine]
[6]; HL-60 with inducing agents
  effect on induced maturation of HL-60 cells: prevented their induced maturation into functional neutrophils
[7]
  Neutrophils: significantly more
  spleen weight: significantly heavier spleens
  total white blood cells: significantly more

## CCCCCCCCCCCC(=O)OC[C@H]1O[C@@H](n2cnc3c(=O)[nH]c(N)nc32)[C@H](O)[C@@H]1O [laurolyguanosine, Lauroylguanosine]
[8]
  spleen weight: significantly larger spleens

## NC(=O)c1csc([C@@H]2O[C@H](CO)[C@@H](O)[C@H]2O)n1 [tiazofurin, reference compound]
[6]; HL-60 in vitro
  conversion of immature blast cells into mature granulocytes: induced
